Assay [1] concerns ras-transformed fibroblasts (ras 3T3 cells). Nature of the assay: MTS-based cell-viability assay, control cells (FIG. 3B). The following applies: for survival (viable surviving fraction): MTS assay at day 5, over the dose range examined; for effect on cell growth: singly or together. Here is the method:
Screening Assay. […] Cells were plated and attached overnight in growth media consisting of DMEM with 10% fetal bovine serum (FBS). […] Media with agents was replaced every 48 hours. At day 5 and 8, media was withdrawn and cells were fixed and stained in 0.5% crystal violet in 70% methanol. The crystal violet stained cells reveal a dense intact monolayer in media absent either agent. […] This observed synergistic effect is an important finding in the treatment of diseases characterized by hyperproliferation of cells. […] For cell-counting assays, 5×10^3 cells were plated in triplicate in 100 mm cell culture dishes and allowed to attach overnight as above in DMEM+10% FBS and treated with agents in DMEM+5% PPP. Media and agents were replaced every 48 hours. At day 5 cells were trypsinized and counted with hemacytometer.
For the MTS-based cell-viability assay, 5×10^3 cells were plated in 24 well dishes overnight in DMEM+10% FBS. […] Each condition was assayed in triplicate. Media and agents were replaced every 48 hours and viable surviving fraction estimated using the MTS assay at day 5 following treatment.
For orientation: Tetrazolium assays rely on reduction of a dye to a coloured formazan, in cell work by metabolically active cells.

Assay [2] deals with chronic myeloid leukemia and gastrointestinal stromal tumours. To be noted: humans; cited from earlier work.
Assay [3] deals with simian sarcoma virus-transformed NIH/3T3 (sis 3T3) fibroblast cells. Nature of the assay: Screening assay, crystal violet staining of cells in 12-well dishes (FIG. 1). To be noted: single agent in increasing amounts (STI-571 0-3 μM; ADW 0-1 μM), DMEM+5% PPP, crystal violet at day 5 and 8. It is filed as cell-based. On the procedure: Screening Assay. […] Cells were plated and attached overnight in growth media consisting of DMEM with 10% fetal bovine serum (FBS). […] Media with agents was replaced every 48 hours. At day 5 and 8, media was withdrawn and cells were fixed and stained in 0.5% crystal violet in 70% methanol. […] For cell-counting assays, 5×10^3 cells were plated in triplicate in 100 mm cell culture dishes and allowed to attach overnight as above in DMEM+10% FBS and treated with agents in DMEM+5% PPP. Media and agents were replaced every 48 hours. At day 5 cells were trypsinized and counted with hemacytometer.

As for `Cc1ccc(NC(=O)c2ccc(CN3CCN(C)CC3)cc2)cc1Nc1nccc(-c2cccnc2)n1` [STI-571], in assay [1], the “survival (viable surviving fraction)” value was “no effect on survival” and the “effect on cell growth” value is on record as “little effect”. Further, in assay [2], the “efficacy in treating chronic myeloid leukemia and gastrointestinal stromal tumours” value is on record as “effective”. The “density of cells in the monolayer” value in assay [3] is on record as “visibly depleted”.

As for `Nc1ncnc2c1c(-c1cccc(OCc3ccccc3)c1)cn2[C@H]1C[C@H](CN2CCCC2)C1` [ADW, trans-5-(3-benzyloxy-phenyl)-7-(3-pyrrolidin-1-ylmethyl-cyclobutyl)-7H-pyrrolo[2,3-d]pyrimidin-4-ylamine], in assay [1], the “survival (viable surviving fraction)” value was “decreased survival” and the “effect on cell growth” value was “little effect”.

The values above are taken from patent US20050215564A1, “Methods and compositions for treating hyperproliferative conditions” (priority 2002, published 2005).
